Assay results from ChEMBL document CHEMBL5532661, “Discovery of a Novel Glucagon-like Peptide-1 (GLP-1) Analogue from Bullfrog and Investigation of Its Potential for Designing GLP-1-Based Multiagonists” (J Med Chem, 2024).
Calls of active or inactive are those of the source. No cut-off for these calls is given here. Numbered stars: 1 amine (or outer) side, 2 acyl side, 3 side chain; on linkers, the order of the positions; unused ones are H or OH. Square brackets hold non-standard residues; d marks the D form. Side chains are listed from the residue outwards. Peptide text beside a SMILES is read from it. * marks the point of attachment. C20 diacid = O=C(O)CCCCCCCCCCCCCCCCCCC(=O)*; C18 diacid = O=C(O)CCCCCCCCCCCCCCCCC(=O)*; γGlu = O=C(O)[C@H](CCC(=O)[*:2])N[*:1]; Palmitoyl = CCCCCCCCCCCCCCCC(=O)*; AEEA = NCCOCCOCC(=O)O; Aib = CC(C)(N)C(=O)O

Experiments:
[1] = biological target: T1, Glucagon-like peptide 1 receptor (Homo sapiens, UniProt P43220); test: Agonist activity at human GLP-1 receptor expressed in HEK293 cells assessed as cAMP level measured after 60 mins by HTRF based assay; assay type: functional, cell-based
Mus musculus [2] = test: Antihyperglycemic effect in non-fasted DIO mouse assessed as decrease in blood glucose at 30 nmol/kg, sc measured upto 48 hrs; assay type: functional, organism-based
[3] = biological target: T1, Glucagon-like peptide 1 receptor; test: Potency index, ratio of Semaglutide EC50 to test compound EC50 for agonist activity at human GLP-1 receptor expressed in HEK293 cells assessed as cAMP level measured after 60 mins by HTRF based assay; assay type: functional, cell-based; conditions: filed as agonist
Mus musculus [4] = test: Hypoglycemic effect in ICR mouse treated with 3 g/kg glucose assessed as reduction in blood glucose level at 100 nmol/kg, sc measured upto 120 mins by acute glucose lowering test; assay type: functional, organism-based
Mus musculus [5] = test: Hypoglycemic effect in ICR mouse treated with 3 g/kg glucose assessed as reduction in blood glucose level at 30 nmol/kg, sc measured upto 120 mins pretreated with GLP-1R antagonist by OGTT; assay type: functional, organism-based
Mus musculus [6] = test: Anorexigenic effect in ICR mouse assessed as decrease in food intake at 30 nmol/kg, sc measured upto 72 hrs by acute food intake study; assay type: functional, organism-based
Mus musculus [7] = test: Anorexigenic effect in ICR mouse assessed as decrease in food intake at 30 nmol/kg, sc measured at 48 hrs by acute food intake study; assay type: functional, organism-based
Mus musculus [8] = test: Anorexigenic effect in ICR mouse assessed as decrease in food intake at 10 nmol/kg, sc measured upto 72 hrs by acute food intake study; assay type: functional, organism-based
Mus musculus [9] = test: Anorexigenic effect in sc dosed ICR mouse assessed as decrease in food intake measured upto 72 hrs by acute food intake study; assay type: functional, organism-based; conditions: dose 10-100 nmol/kg
Mus musculus [10] = test: Antihyperglycemic effect in DIO mouse assessed as antihyperglycemic duration by measuring blood glucose at 30 nmol/kg, sc measured after 48 hrs by hypoglycemic duration assay; assay type: functional, organism-based
Mus musculus [11] = test: Antihyperglycemic effect in DIO mouse assessed as antihyperglycemic duration by measuring blood glucose at 30 nmol/kg, sc administered twice daily measured by hypoglycemic duration assay; assay type: functional, organism-based
Mus musculus [12] = test: Antihyperglycemic effect in DIO mouse assessed as prolonged antihyperglycemic duration by measuring blood glucose at 100 nmol/kg, sc; assay type: functional, organism-based
Mus musculus [13] = test: Reduction in body weight in DIO mouse at 30 nmol/kg, sc treated every 2 and half day once measured after 21 days; assay type: functional; set-up: scale not given: the % may be the effect or the level left; conditions: time 21 day
Mus musculus [14] = test: Reduction in blood glucose level in non-fasting DIO mouse at 30 nmol/kg, sc treated every 2 and half day once measured after 21 days by glucose tolerance test; assay type: functional, organism-based; conditions: time 21.0 day
Mus musculus [15] = test: Reduction in total fat mass in DIO mouse at 30 nmol/kg, sc treated every 2 and half day once measured after 21 days; assay type: functional, organism-based; conditions: time 21.0 day
Mus musculus [16] = test: Reduction in serum triglyceride in DIO mouse at 30 nmol/kg, sc treated every 2 and half day once measured after 21 days; assay type: functional, organism-based; conditions: time 21.0 day
Mus musculus [17] = test: Reduction in total cholesterol in DIO mouse at 30 nmol/kg, sc treated every 2 and half day once measured after 21 days; assay type: functional, organism-based; conditions: time 21.0 day
Mus musculus [18] = test: Reduction in serum AST in DIO mouse at 30 nmol/kg, sc treated every 2 and half day once measured after 21 days; assay type: functional, organism-based; conditions: time 21.0 day
Mus musculus [19] = test: Reduction in serum ALT in DIO mouse at 30 nmol/kg, sc treated every 2 and half day once measured after 21 days; assay type: functional, organism-based; conditions: time 21.0 day
Mus musculus [20] = test: Reduction in hepatic lipid content in DIO mouse at 30 nmol/kg, sc treated every 2 and half day once measured after 21 days by H and E staining based assay; assay type: functional, organism-based; conditions: time 21.0 day
[21] = biological target: T1, Glucagon-like peptide 1 receptor; test: Agonist activity at human GLP-1 receptor expressed in HEK293 cells assessed as cAMP level by measuring relative percent (GLP-1 EC50/compound EC50) measured after 60 mins by HTRF based assay relative to GLP-1; assay type: functional, cell-based; conditions: filed as agonist
Glucagon receptor [22] = biological target: T2, Glucagon receptor (Homo sapiens, UniProt P47871); test: Agonist activity at human GCGR expressed in HEK293 cells assessed as cAMP level measured after 60 mins by HTRF based assay; assay type: functional, cell-based
Glucagon receptor [23] = biological target: T2, Glucagon receptor; test: Agonist activity at human GCGR expressed in HEK293 cells assessed as cAMP level by measuring relative percent (glucagon EC50/compound EC50) measured after 60 mins by HTRF based assay relative to glucagon; assay type: functional, cell-based
[24] = biological target: T3, Gastric inhibitory polypeptide receptor (Homo sapiens, UniProt P48546); test: Agonist activity at human GIPR receptor expressed in HEK293 cells assessed as cAMP level measured after 60 mins by HTRF based assay; assay type: functional, cell-based
T3 sequence (P48546 whole entry): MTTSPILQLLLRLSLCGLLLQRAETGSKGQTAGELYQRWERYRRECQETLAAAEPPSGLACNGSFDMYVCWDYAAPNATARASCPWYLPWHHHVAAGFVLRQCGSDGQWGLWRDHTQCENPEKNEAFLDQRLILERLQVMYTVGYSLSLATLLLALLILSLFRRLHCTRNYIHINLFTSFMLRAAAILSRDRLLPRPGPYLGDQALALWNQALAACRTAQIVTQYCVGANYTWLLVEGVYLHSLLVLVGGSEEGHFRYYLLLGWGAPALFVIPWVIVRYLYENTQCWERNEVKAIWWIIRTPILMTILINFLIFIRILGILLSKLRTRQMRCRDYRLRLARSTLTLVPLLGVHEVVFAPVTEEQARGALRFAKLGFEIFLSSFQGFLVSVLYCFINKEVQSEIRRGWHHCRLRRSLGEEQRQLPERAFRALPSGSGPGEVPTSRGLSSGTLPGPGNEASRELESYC

[25] = biological target: T4, Gastric inhibitory polypeptide receptor (Homo sapiens) (UniProt P48546); test: Agonist activity at human GIPR receptor expressed in HEK293 cells assessed as cAMP level by measuring relative percent (GIP EC50/compound EC50) measured after 60 mins by HTRF based assay relative to GIP; assay type: functional, cell-based
T4 sequence (whole entry): T3 sequence (P48546 whole entry)

T1 sequence (P43220 whole entry): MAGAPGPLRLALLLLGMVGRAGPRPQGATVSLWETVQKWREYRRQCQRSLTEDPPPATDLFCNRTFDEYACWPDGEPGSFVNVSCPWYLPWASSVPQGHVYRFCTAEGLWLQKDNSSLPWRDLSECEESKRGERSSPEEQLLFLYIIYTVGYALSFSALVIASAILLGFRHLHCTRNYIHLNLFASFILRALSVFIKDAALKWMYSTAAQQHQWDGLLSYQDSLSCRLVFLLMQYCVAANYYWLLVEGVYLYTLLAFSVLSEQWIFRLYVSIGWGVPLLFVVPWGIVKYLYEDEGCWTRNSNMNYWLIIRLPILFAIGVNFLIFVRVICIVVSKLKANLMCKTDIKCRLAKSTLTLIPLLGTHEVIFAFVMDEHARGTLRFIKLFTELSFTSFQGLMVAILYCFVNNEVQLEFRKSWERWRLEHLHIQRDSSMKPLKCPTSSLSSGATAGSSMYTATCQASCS
T2 sequence (P47871 whole entry): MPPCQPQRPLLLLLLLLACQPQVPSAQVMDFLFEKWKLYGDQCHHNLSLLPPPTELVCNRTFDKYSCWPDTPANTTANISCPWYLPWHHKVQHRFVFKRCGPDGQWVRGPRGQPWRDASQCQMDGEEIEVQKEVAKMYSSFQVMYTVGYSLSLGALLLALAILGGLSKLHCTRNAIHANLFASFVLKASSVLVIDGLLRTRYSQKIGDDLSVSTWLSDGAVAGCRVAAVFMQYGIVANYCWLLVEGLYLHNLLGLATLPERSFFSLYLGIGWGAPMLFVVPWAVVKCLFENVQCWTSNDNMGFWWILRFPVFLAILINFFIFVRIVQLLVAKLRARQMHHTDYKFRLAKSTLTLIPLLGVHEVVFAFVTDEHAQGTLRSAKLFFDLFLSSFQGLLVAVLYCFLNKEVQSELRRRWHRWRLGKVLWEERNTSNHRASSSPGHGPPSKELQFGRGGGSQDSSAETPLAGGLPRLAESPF

CC[C@H](C)[C@H](NC(=O)[C@H](CC(C)C)NC(=O)[C@H](Cc1c[nH]c2ccccc12)NC(=O)[C@H](CC(=O)O)NC(=O)[C@@H](NC(=O)[C@H](Cc1ccccc1)NC(=O)[C@H](CCC(=O)O)NC(=O)[C@H](CCCCNC(=O)COCCOCCNC(=O)COCCOCCNC(=O)CC[C@H](NC(=O)CCCCCCCCCCCCCCCCC(=O)O)C(=O)O)NC(=O)[C@H](C)NC(=O)[C@H](C)NC(=O)[C@H](CCC(=O)O)NC(=O)[C@H](CCC(=O)O)NC(=O)[C@H](CCC(=O)O)NC(=O)[C@H](CC(C)C)NC(=O)[C@H](Cc1ccc(O)cc1)NC(=O)[C@H](CO)NC(=O)[C@H](CO)NC(=O)[C@H](CCSC)NC(=O)[C@H](CC(=O)O)NC(=O)[C@H](CO)NC(=O)[C@@H](NC(=O)[C@H](Cc1ccccc1)NC(=O)[C@@H](NC(=O)CNC(=O)[C@H](CC(=O)O)NC(=O)C(C)(C)NC(=O)[C@@H](N)Cc1c[nH]cn1)[C@@H](C)O)[C@@H](C)O)C(C)C)C(=O)N[C@@H](CCCCN)C(=O)NCC(=O)N[C@@H](CCCNC(=N)N)C(=O)N1CCC[C@H]1C(=O)N[C@@H](C)C(N)=O (H-H[Aib]DGTFTSDMSSYLEEEAAK([AEEA-AEEA-γGlu-C18 diacid])EFVDWLIKGRPA-NH2)
EC50 [1]: 0.019 nM | Activity (Mus musculus [2]): Active | Ratio EC50 [3]: 2.8 | Activity (Mus musculus [4]): Active | Activity (Mus musculus [5]): inactive | Activity (Mus musculus [6]): Active | Activity (Mus musculus [7]): Active | Activity (Mus musculus [8]): Active | Activity (Mus musculus [9]): Dose-Dependent Effect | Activity (Mus musculus [10]): Active | Activity (Mus musculus [11]): Active | Activity (Mus musculus [12]): Active | Activity (Mus musculus [13]): 24.9% | Activity (Mus musculus [14]): Active | Activity (Mus musculus [15]): Active | Activity (Mus musculus [16]): Active | Activity (Mus musculus [17]): Active | Activity (Mus musculus [18]): Active | Activity (Mus musculus [19]): Active | Activity (Mus musculus [20]): Active

CCCCCCCCCCCCCCCC(=O)N[C@@H](CCC(=O)NCCCC[C@H](NC(=O)[C@H](C)NC(=O)[C@H](C)NC(=O)[C@H](CCC(=O)O)NC(=O)[C@H](CCC(=O)O)NC(=O)[C@H](CCC(=O)O)NC(=O)[C@H](CC(C)C)NC(=O)[C@H](Cc1ccc(O)cc1)NC(=O)[C@H](CO)NC(=O)[C@H](CO)NC(=O)[C@H](CCSC)NC(=O)[C@H](CC(=O)O)NC(=O)[C@H](CO)NC(=O)[C@@H](NC(=O)[C@H](Cc1ccccc1)NC(=O)[C@@H](NC(=O)CNC(=O)[C@H](CC(=O)O)NC(=O)C(C)(C)NC(=O)[C@@H](N)Cc1c[nH]cn1)[C@@H](C)O)[C@@H](C)O)C(=O)N[C@@H](CCC(=O)O)C(=O)N[C@@H](Cc1ccccc1)C(=O)N[C@H](C(=O)N[C@@H](CC(=O)O)C(=O)N[C@@H](Cc1c[nH]c2ccccc12)C(=O)N[C@@H](CC(C)C)C(=O)N[C@H](C(=O)N[C@@H](CCCCN)C(=O)NCC(=O)N[C@@H](CCCNC(=N)N)C(=O)N1CCC[C@H]1C(=O)N[C@@H](C)C(N)=O)[C@@H](C)CC)C(C)C)C(=O)O (H-H[Aib]DGTFTSDMSSYLEEEAAK([γGlu-Palmitoyl])EFVDWLIKGRPA-NH2)
EC50 [1]: 0.021 nM | Activity (Mus musculus [2]): inactive

CC[C@H](C)[C@H](NC(=O)[C@H](CCCCNC(=O)COCCOCCNC(=O)COCCOCCNC(=O)CC[C@H](NC(=O)CCCCCCCCCCCCCCCCCCC(=O)O)C(=O)O)NC(=O)[C@H](CCC(=O)O)NC(=O)[C@H](CC(C)C)NC(=O)[C@H](C)NC(=O)[C@H](CCCNC(=N)N)NC(=O)[C@H](CO)NC(=O)[C@H](CCSC)NC(=O)[C@H](CC(=O)O)NC(=O)[C@H](CO)NC(=O)[C@@H](NC(=O)[C@H](Cc1ccccc1)NC(=O)[C@@H](NC(=O)CNC(=O)[C@H](CCC(N)=O)NC(=O)C(C)(C)NC(=O)[C@@H](N)Cc1c[nH]cn1)[C@@H](C)O)[C@@H](C)O)C(=O)N[C@@H](C)C(=O)N[C@@H](C)C(=O)N[C@@H](CCCNC(=N)N)C(=O)N[C@@H](CC(C)C)C(=O)N[C@@H](Cc1ccccc1)C(=O)N[C@H](C(=O)N[C@@H](CC(=O)O)C(=O)N[C@@H](Cc1c[nH]c2ccccc12)C(=O)N[C@@H](CC(C)C)C(=O)N[C@H](C(=O)N[C@@H](CCC(=O)O)C(=O)NCC(=O)NCC(=O)N1CCC[C@H]1C(=O)N[C@@H](CO)C(=O)N[C@@H](CO)C(=O)NCC(=O)N[C@@H](C)C(=O)N1CCC[C@H]1C(=O)N1CCC[C@H]1C(=O)N1CCC[C@H]1C(=O)N[C@@H](CO)C(N)=O)[C@@H](C)CC)C(C)C (H-H[Aib]QGTFTSDMSRALEK([AEEA-AEEA-γGlu-C20 diacid])IAARLFVDWLIEGGPSSGAPPPS-NH2)
EC50 [1]: 0.018 nM | Activity [21]: 294% | EC50 (Glucagon receptor [22]): 0.53 nM | Activity (Glucagon receptor [23]): 17% | EC50 [24]: 0.96 nM | Activity [25]: 3%
